Paper PMC8152971, “Valeriana rigida Ruiz & Pav. Root Extract: A New Source of Caffeoylquinic Acids with Antioxidant and Aldose Reductase Inhibitory Activities” (Foods, 2021)
Where “and” joins values, the source holds several entries; their conditions need not be identical. Identical values can stand only once. Like-named read-outs stand apart in the source and are kept apart here. Marks after values point to notes of the source that are not given here.

Experiments:
[1] = target: T1, rat lens AR homogenate (aldose reductase) (Rattus norvegicus, UniProt P07943); experiment: AR inhibition assay; format: biochemical, Sprague–Dawley rats
T1 construct: the lenses were removed from the eyes, ground in a mortar; from tissue; host or cells: lens of Sprague–Dawley rats
Experimental: The eyes of 10-week Sprague–Dawley rats (250–280 g) were removed and frozen at −70 °C before use. Thereafter, the lenses were removed from the eyes, ground in a mortar (precooled at −70 °C), and extracted using 0.1 M PBS of pH 6.2 (around 0.5 mL of buffer per two frozen rat lenses).
The AR inhibitory activities of the extract and the separated compounds were determined as described previously. […] Next, the reaction was initiated by adding 20 µL of the substrate (DL-glyceraldehyde dimmer, 25 mM in 0.1 M PBS of pH 7.0), and the values were further measured for 6 min at 340 nm (OD340) using an Epoch microplate spectrophotometer (BioTek Instruments, Winooski, VT, USA). […] The DMSO used for sample preparation was less than 0.4% (v/v) in the reaction system.

[2] = ABTS radical scavenging assay; details: Trolox equivalent antioxidant capacity, mean ± SD, n ≥ 3
Experimental: The experiment was conducted as previously described. In brief, 3.5 mM of potassium persulfate aqueous solution was used to prepare 0.2 mM of ABTS diammonium salt. The solution was diluted 10-fold using distilled water and allowed to produce ABTS radicals (ABTS^+) by keeping the solution in the dark for 14 h at room temperature. […] Equation (1) was used to calculate the ABTS^+ scavenging activity (%), where Acontrol is the absorbance of ABTS^+ solution free of samples, Asample is the absorbance of ABTS^+ solution incubated with a sample, Ablank1 is the absorbance of the test sample free of ABTS^+ solution, and Ablank2 is the absorbance of the diluted potassium persulfate solution.

[3] = Partition coefficient (K upper/lower) in biphasic CCC solvent systems; format: physicochemical
Experimental: The solvent system was screened via HPLC and evaluated according to the partition coefficient (K value) of the target compounds on the principle introduced by Ito [32]. Briefly, four solvent systems comprising EtOAc, n-BuOH, […] solution to 29 mM, and then the corresponding K values of the target compounds under acidic (Kacid) or basic (Kbase) conditions were determined, as previously described: each acidified or basified solvent system was partitioned to upper layer and lower layer. Thereafter, the extract (about 1–2 mg) was prepared in a 1.5 mL tube and dissolved by adding equal volumes (each 500 µL) of the upper layer and lower layers, which were mixed by a vortex mixer and centrifuged for about 20 s using a C1301 Mini Centrifuge (Labnet International, South Korea). Next, the upper and lower phase sample solutions were respectively pipetted (each 200 µL) into a new 1.5 mL-tube and evaporated by nitrogen gas. Each sample residue was redissolved using 200 µL of MeOH and subjected to HPLC analysis with an injection volume of 20 µL. The K value was calculated as K = Aupper/Alower, where Aupper and Alower are the HPLC peak areas of the target component in the upper and lower phases, respectively.

[4] = Oxygen radical absorbance capacity (ORAC) assay; details: Trolox equivalent antioxidant capacity, mean ± SD, n ≥ 3
Experimental: The oxygen radical absorbance capacity (ORAC) assay was performed as previously described. Briefly, 0. […] Next, 60 µL of AAPH (40 mM) was added to generate peroxyl radicals to initiate the reaction.

[5] = Hypochlorous acid (HOCl) scavenging assay
Experimental: The HOCl scavenging assay was adapted from a previous study using 1,8-diaminonaphthalene as a fluorescence probe for hypochlorite. […] Next, the fluorescence intensity (λex = 360 ± 20 nm, λem = 460 ± 20 nm) was immediately measured using a microplate fluorescence reader (FLx800; Bio-Tek, Winooski, VT, USA). Trolox (final concentration 25–100 µg/mL) was used as a reference antioxidant.

[6] = DPPH radical scavenging assay; details: Trolox equivalent antioxidant capacity, mean ± SD, n ≥ 3
Experimental: The experiment was carried out as previously described. […] Thereafter, the absorbance was measured using a microplate reader (EL800, Bio-Tek Instruments, Winooski, VT, USA) at 570 nm.

[7] = read-out: AR inhibitory Activity Inhibition (%)
[8] = rat lens AR, read-out: AR inhibitory Activity IC50
[9] = EtOAc/H2O, 1:1, 208 mM formic acid
[10] = EtOAc/n-BuOH/H2O, 2:3:5, 30 mM ammonia
[11] = EtOAc/n-BuOH/H2O, 2:3:5, 208 mM formic acid
[12] = EtOAc/n-BuOH/H2O, 3:2:5, 30 mM ammonia
[13] = EtOAc/n-BuOH/H2O, 3:2:5, 208 mM formic acid
[14] = EtOAc/n-BuOH/H2O, 4:1:5, 30 mM ammonia
[15] = EtOAc/n-BuOH/H2O, 4:1:5, 208 mM formic acid

O=C(/C=C/c1ccc(O)c(O)c1)O[C@@H]1C[C@](O)(C(=O)O)C[C@@H](OC(=O)/C=C/c2ccc(O)c(O)c2)[C@H]1OC(=O)/C=C/c1ccc(O)c(O)c1 [3,4,5-triCQA (7), 3,4,5-tri-O-caffeoylquinic acid]
inhibition at 0.195 µM [1, 7]: 27.6 ± 2.43%
inhibition at 0.391 µM [1, 7]: 49.7 ± 0.94%
inhibition at 0.781 µM [1, 7]: 69.8 ± 0.77%
IC50 [1, 8]: 400 nM
TE, ABTS [2]: 1.31 ± 0.05 ^a µmol Trolox Equivalents Per µmol Compound
K(upper/lower) Value ([3]; EtOAc/H2O, 1:1, 30 mM ammonia): 0.02
K(upper/lower) Value [3, 9]: 23.71
K(upper/lower) Value [3, 10]: 0.40
K(upper/lower) Value [3, 11]: 29.51
K(upper/lower) Value [3, 12]: 0.22
K(upper/lower) Value [3, 13]: 26.44
K(upper/lower) Value [3, 14]: 0.03
K(upper/lower) Value [3, 15]: 27.56
TE, ORAC [4]: 1.95 ± 0.15 ^b µmol Trolox Equivalents Per µmol Compound
HOCl Scavenging Activity Inhibition (%) ([5]; 6.25 µM): 35.39 ± 1.17%
HOCl Scavenging Activity Inhibition (%) ([5]; 12.5 µM): 52.93 ± 1.02%
HOCl Scavenging Activity Inhibition (%) ([5]; 25 µM): 84.32 ± 3.39%
IC50 ([5]; linear regression): 11700 nM
TE, DPPH [6]: 1.28 ± 0.04 ^a µmol Trolox Equivalents Per µmol Compound

O=C(/C=C/c1ccc(O)c(O)c1)O[C@H]1[C@H](O)C[C@](O)(C(=O)O)C[C@H]1OC(=O)/C=C/c1ccc(O)c(O)c1 [3,4-diCQA (4), 3,4-di-O-caffeoylquinic acid]
inhibition at 0.098 µM ([1]; 0.098 µM, read-out: AR inhibitory Activity Inhibition (%)): 18.9 ± 2.43%
inhibition at 0.195 µM [1, 7]: 50.4 ± 3.34%
inhibition at 0.391 µM [1, 7]: 68.67 ± 0.68%
IC50 [1, 8]: 220 nM
TE, ABTS [2]: 1.06 ± 0.06 ^c µmol Trolox Equivalents Per µmol Compound
K(upper/lower) Value ([3]; EtOAc/H2O, 1:1, 30 mM ammonia): 0.02
K(upper/lower) Value [3, 9]: 3.49
K(upper/lower) Value [3, 10]: 0.04
K(upper/lower) Value [3, 11]: 20.24
K(upper/lower) Value [3, 12]: 0.03
K(upper/lower) Value [3, 13]: 16.14
K(upper/lower) Value [3, 14]: 0.02
K(upper/lower) Value [3, 15]: 4.86
TE, ORAC [4]: 3.26 ± 0.10 ^a µmol Trolox Equivalents Per µmol Compound
HOCl Scavenging Activity Inhibition (%) ([5]; 3.125 µM): 46.68 ± 2.87%
HOCl Scavenging Activity Inhibition (%) ([5]; 6.25 µM): 50.28 ± 0.19%
HOCl Scavenging Activity Inhibition (%) ([5]; 12.5 µM): 59.15 ± 1.19%
IC50 ([5]; linear regression): 5780 nM
TE, DPPH [6]: 1.09 ± 0.09 ^b µmol Trolox Equivalents Per µmol Compound

O=C(/C=C/c1ccc(O)c(O)c1)O[C@@H]1C[C@@](O)(C(=O)O)C[C@@H](O)[C@@H]1O [3-CQA (1), 3-O-caffeoylquinic acid]
inhibition at 1.5625 µM ([1]; 1.5625 µM, read-out: AR inhibitory Activity Inhibition (%)): 29.4 ± 3.4%
inhibition at 3.125 µM ([1]; 3.125 µM, read-out: AR inhibitory Activity Inhibition (%)): 45.8 ± 1.75%
inhibition at 6.25 µM ([1]; 6.25 µM, read-out: AR inhibitory Activity Inhibition (%)): 60.1 ± 1.22%
K(upper/lower) Value ([3]; EtOAc/H2O, 1:1, 30 mM ammonia): 0.02
K(upper/lower) Value [3, 9]: 0.49
K(upper/lower) Value [3, 10]: 0.01
K(upper/lower) Value [3, 11]: 2.49
K(upper/lower) Value [3, 12]: 0.05
K(upper/lower) Value [3, 13]: 2.03
K(upper/lower) Value [3, 14]: 0.00
K(upper/lower) Value [3, 15]: 1.36
K(upper/lower) Value ([3]; n-BuOH/H2O, 1:1): 0.04
K(upper/lower) Value ([3]; n-BuOH/H2O, 1:1 + 8.7 mM acetic acid): 0.73

O=C(/C=C/c1ccc(O)c(O)c1)O[C@@H]1C[C@](O)(C(=O)O)C[C@@H](O)[C@H]1O [5-CQA (2), 5-O-caffeoylquinic acid]
inhibition at 0.391 µM [1, 7]: 30.8 ± 2.18%
inhibition at 0.781 µM [1, 7]: 44.2 ± 1.17%
inhibition at 1.563 µM ([1]; 1.563 µM, read-out: AR inhibitory Activity Inhibition (%)): 63.8 ± 2.55%
IC50 [1, 8]: 910 nM
K(upper/lower) Value ([3]; EtOAc/H2O, 1:1, 30 mM ammonia): 0.01
K(upper/lower) Value [3, 9]: 0.95
K(upper/lower) Value [3, 10]: 0.01
K(upper/lower) Value [3, 11]: 6.86
K(upper/lower) Value [3, 12]: 0.03
K(upper/lower) Value [3, 13]: 5.48
K(upper/lower) Value [3, 14]: 0.01
K(upper/lower) Value [3, 15]: 2.43

COc1ccc(-c2cc(=O)c3c(O)cc(O)cc3o2)cc1 [Acacetin (8), acacetin]
inhibition at 25 µM ([1]; 25 µM, read-out: AR inhibitory Activity Inhibition (%)): 12.3 ± 4.22%
inhibition at 50 µM ([1]; 50 µM, read-out: AR inhibitory Activity Inhibition (%)): 24 ± 0.63%
inhibition at 100 µM ([1]; 100 µM, read-out: AR inhibitory Activity Inhibition (%)): 36.3 ± 3.78%

CC(/C=C1\SC(=S)N(CC(=O)O)C1=O)=C\c1ccccc1 [Epalrestat, epalrestat, reference compound]
inhibition at 0.01 µg/mL [1, 7]: 21.7 ± 1.25%
inhibition at 0.02 µg/mL [1, 7]: 79.3 ± 1.35%
inhibition at 0.031 µM [1, 7]: 21.7 ± 1.25%
inhibition at 0.04 µg/mL [1, 7]: 91.8 ± 1.84%
inhibition at 0.063 µM [1, 7]: 79.3 ± 1.35%
inhibition at 0.125 µM [1, 7]: 91.8 ± 1.84%

O=c1c(O)c(-c2ccc(O)c(O)c2)oc2cc(O)cc(O)c12 [Quercetin, quercetin, reference compound]
inhibition at 1.889 µg/mL [1, 7]: 34.8 ± 0.51%
inhibition at 3.778 µg/mL [1, 7]: 46 ± 4.49%
inhibition at 6.25 µM [1, 7]: 34.8 ± 0.51%
inhibition at 7.556 µg/mL [1, 7]: 67 ± 3.22%
inhibition at 12.5 µM [1, 7]: 46 ± 4.49%
inhibition at 25 µM [1, 7]: 67 ± 3.22%

C[C@@H]1O[C@@H](Oc2c(-c3ccc(O)c(O)c3)oc3cc(O)cc(O)c3c2=O)[C@H](O)[C@H](O)[C@H]1O [Quercitrin, quercitrin, reference compound]
IC50 ([1]; AR Inhibitory Activity IC50, rat lens AR): 103 nM
IC50 ([1]; AR inhibitory Activity IC50, rat lens AR): 102 nM and 100 nM
inhibition at 0.056 µg/mL [1, 7]: 62.33 ± 0.44%
inhibition at 0.063 µM [1, 7]: 32.6 ± 2.7%
inhibition at 0.112 µg/mL [1, 7]: 74.6 ± 1.11%
inhibition at 0.125 µM [1, 7]: 62.33 ± 0.44%
inhibition at 0.25 µM [1, 7]: 74.6 ± 1.11%

Cc1c(C)c2c(c(C)c1O)CCC(C)(C(=O)O)O2 (stereo not drawn) [Trolox, reference compound]
HOCl Scavenging Activity Inhibition (%) ([5]; 6.25 µg/mL): 40.76 ± 0.39%
HOCl Scavenging Activity Inhibition (%) ([5]; 12.5 µg/mL): 66.53 ± 2.54%
HOCl Scavenging Activity Inhibition (%) ([5]; 25 µM): 40.76 ± 0.39%
HOCl Scavenging Activity Inhibition (%) ([5]; 25 µg/mL): 97.07 ± 5.45%
HOCl Scavenging Activity Inhibition (%) ([5]; 50 µM): 66.53 ± 2.54%
HOCl Scavenging Activity Inhibition (%) ([5]; 100 µM): 97.07 ± 5.45%
HOCl Scavenging Activity IC50 ([5]; linear regression): 8.52 µg/mL
IC50 ([5]; linear regression): 34000 nM
